Laboratory results: patent publication US20060223888A1, “Valproic acid analogues and pharmaceutical composition thereof” (priority 2002, published 2006)

Key:
[1] = tested on: PTZ-induced clonic seizures; experiment: PTZ85 assay, latency of clonic seizures; type: in vivo; conditions: 1800 micromoles, male cd1/cr mice
Description: SCMET (PTZ85) Assay. Male CD1/CR mice weighing from 25-35 g are administrated test compounds (range of 5 doses) 15 minutes prior to PTZ. PTZ is administrated subcutaneously, just caudal to the cranium, at a dose of 85 mg/kg. Animals are then caged individually and observed for 15 minutes. The occurrence and latency to clonic and/or tonic convulsions are recorded. The mice are used once. Ten mice are used in each dose group. […] ED50 is determined from a graph of percentage protection vs log(dose) following the known method of Litchfield^18, where percentage protection refers to the percent of animals in each dose group which are protected against seizures. The compounds of interest were tested at an equivalent dose of 1800 micromoles on male cd1/cr mice using the PTZ85 Assay to induce clonic (repetitive seizures). Both the latency (time of seizure onset) and the number of animals protected increased with the size of the ring, or with increased lipophilicity.

[2] = tested on: rotarod test (neurotoxicity); experiment: Rotarod neurotoxicity test (TOX), rats, oral; type: in vivo
Description: Anticonvulsant testing was conducted at the antiepileptic screening facility of the National Institute for Neurological Disorders and Stroke in Rockville, Md. Initial tests were done in mice (i.p.) followed by oral and i.p. administration to rats. Neurotoxicity was evaluated with the rotarod test. Maximal electroshock (MES) and subcutaneous methylene tetrazole (SCMET) or pentylene tetrazole (PTZ) were the most common tests performed. Typical procedures are described below.
Rotorod Test. Acute drug induced neurotoxicity is detected in mice using the standard rotorod test. An untreated mouse, when placed on a 6 rpm rotation rod, can maintain its equilibrium for a prolonged period of time.
A number of VPA analogues and their sodium salts were tested for their efficacy as anticonvulsants and for their toxicity using the MES Assay and rotarod test. In particular, the following compounds (as shown in the structures below) were tested: 332059U (sodium salt of VPA), 325071 (known compound, tested for comparison), 325073A (metabolite of VPA), 332060U (4,4-difluoro-2-propylpentanoate, fluorinated analogue of VPA), 341031, and 341032U (conjugated (E,Z)-2,3′-diene VPA analogues).

[3] = tested on: Maximal Electroshock (MES) seizures; experiment: Maximal electroshock (MES) test, rats, oral, time to peak effect; type: in vivo; conditions: for MES N/F = number of animals protected relative to number tested: 200 mg/kg; for Anticonvulsant potency compared with VPA (in words): summary of Table 2
Description: Anticonvulsant testing was conducted at the antiepileptic screening facility of the National Institute for Neurological Disorders and Stroke in Rockville, Md. Initial tests were done in mice (i.p.) followed by oral and i.p. administration to rats. Neurotoxicity was evaluated with the rotarod test. Maximal electroshock (MES) and subcutaneous methylene tetrazole (SCMET) or pentylene tetrazole (PTZ) were the most common tests performed. Typical procedures are described below. MES Assay. Male CD1/CR mice weighing from 25-35 g are administrated test compounds 15 minutes prior to MES. Mice are challenged by pulsed electrical stimulation (50 mA, 0.4 s duration, pulse width 0.5 ms, 60 pulses/sec) via corneal electrodes to induce seizure. Mice are observed post-stimulation for the onset of tonic seizures, and considered to have a tonic seizure only if there is a prolonged extension (>90° from plane of body) of the hind legs. […] Ten mice are used in each group. A number of VPA analogues and their sodium salts were tested for their efficacy as anticonvulsants and for their toxicity using the MES Assay and rotarod test.

[4] = tested on: Subcutaneous Methylene Tetrazole (SCMET) seizures; experiment: Subcutaneous methylene tetrazole (SCMET) test, rats, oral, time to peak effect; type: in vivo

## O=C([O-])/C=C/C=C1CCCCC1.[Na+]
[1]
  Latency of Clonic Seizures: 661 s
  Number of Mice Protected Against Clonic Seizures (Out of 10): 4

## O=C([O-])/C=C/C=C1CCCCCCC1.[Na+]
[1]
  Latency of Clonic Seizures: 855 s
  Number of Mice Protected Against Clonic Seizures (Out of 10): 9

## CC/C=C(\C=C(C)C)C(=O)[O-].[Na+] [341032U, Sodium (2E)-2-(2-methylprop-1-en-1-yl)pent-2-enoate]
[2]; 200 mg/kg, 0.25 h
  TOX: N/F = number of animals that failed the rotarod test to numbers tested: 3/4
[2]; 200 mg/kg, 0.5 h
  TOX: N/F = number of animals that failed the rotarod test to numbers tested: 4/4
[2]; 200 mg/kg, 1.0 h
  TOX: N/F = number of animals that failed the rotarod test to numbers tested: 1/4
[2]; 200 mg/kg, 2.0 h
  TOX: N/F = number of animals that failed the rotarod test to numbers tested: 0/4
[2]; 200 mg/kg, 4.0 h
  TOX: N/F = number of animals that failed the rotarod test to numbers tested: 0/4
[3]; 0.25 h
  MES N/F = number of animals protected relative to number tested: 4/4
[3]; 0.5 h
  MES N/F = number of animals protected relative to number tested: 3/4
[3]; 1.0 h
  MES N/F = number of animals protected relative to number tested: 1/4
[3]; 2.0 h
  MES N/F = number of animals protected relative to number tested: 0/4
[3]; 4.0 h
  MES N/F = number of animals protected relative to number tested: 0/4
[3]
  Anticonvulsant potency compared with VPA (in words): more potent than VPA

## O=C(O)/C=C\C=C1CCCC1 [Compound 42a, (2Z)-4-Cyclopentylidenebut-2-enoic Acid]
other
  melting point: 105 to 107 °C

## O=C(O)/C=C\C=C1CCCCC1 [Compound 42b, (2Z)-4-Cyclohexylidenebut-2-enoic Acid]
other
  melting point: 121 to 123 °C

## O=C([O-])/C=C/C=C1CCCCCC1.[Na+]
[1]
  Latency of Clonic Seizures: 778 s
  Number of Mice Protected Against Clonic Seizures (Out of 10): 7

## C/C=C\C(=C/C(C)C)C(=O)[O-].[Na+] [341031U, Sodium (2E)-4-methyl-2-[(1Z)-prop-1-en-1-yl]pent-2-enoate]
[2]; 200 mg/kg, 0.25 h
  TOX: N/F = number of animals that failed the rotarod test to numbers tested: 0/4
[2]; 200 mg/kg, 0.5 h
  TOX: N/F = number of animals that failed the rotarod test to numbers tested: 0/4
[2]; 200 mg/kg, 1.0 h
  TOX: N/F = number of animals that failed the rotarod test to numbers tested: 0/4
[2]; 200 mg/kg, 2.0 h
  TOX: N/F = number of animals that failed the rotarod test to numbers tested: 0/4
[2]; 200 mg/kg, 4.0 h
  TOX: N/F = number of animals that failed the rotarod test to numbers tested: 0/4
[3]; 0.25 h
  MES N/F = number of animals protected relative to number tested: 3/4
[3]; 0.5 h
  MES N/F = number of animals protected relative to number tested: 2/4
[3]; 1.0 h
  MES N/F = number of animals protected relative to number tested: 0/4
[3]; 2.0 h
  MES N/F = number of animals protected relative to number tested: 0/4
[3]; 4.0 h
  MES N/F = number of animals protected relative to number tested: 0/4
[3]
  Anticonvulsant potency compared with VPA (in words): more potent than VPA

## CCCC(CC(C)(F)F)C(=O)[O-].[Na+] (stereo not shown) [332060U, Sodium 4,4-difluoro-2-propylpentanoate]
[2]; 100 mg/kg, 0.25 h
  TOX: N/F = number of animals that failed the rotarod test to numbers tested: 0/4
[2]; 100 mg/kg, 0.5 h
  TOX: N/F = number of animals that failed the rotarod test to numbers tested: 0/4
[2]; 100 mg/kg, 1.0 h
  TOX: N/F = number of animals that failed the rotarod test to numbers tested: 0/4
[2]; 100 mg/kg, 2.0 h
  TOX: N/F = number of animals that failed the rotarod test to numbers tested: 0/4
[2]; 100 mg/kg, 4.0 h
  TOX: N/F = number of animals that failed the rotarod test to numbers tested: 0/4
[2]; 200 mg/kg, 0.25 h
  TOX: N/F = number of animals that failed the rotarod test to numbers tested: 0/4
[2]; 200 mg/kg, 0.5 h
  TOX: N/F = number of animals that failed the rotarod test to numbers tested: 0/4
[2]; 360 mg/kg, 0.25 h
  TOX: N/F = number of animals that failed the rotarod test to numbers tested: 0/4
[2]; 360 mg/kg, 0.5 h
  TOX: N/F = number of animals that failed the rotarod test to numbers tested: 0/4
[2]; 360 mg/kg, 1.0 h
  TOX: N/F = number of animals that failed the rotarod test to numbers tested: 0/4
[2]; 360 mg/kg, 2.0 h
  TOX: N/F = number of animals that failed the rotarod test to numbers tested: 0/4
[2]; 360 mg/kg, 4.0 h
  TOX: N/F = number of animals that failed the rotarod test to numbers tested: 0/4
[4]; 100 mg/kg, 0.25 h
  SCMET N/F = number of animals protected relative to number tested: 1/4
[4]; 100 mg/kg, 0.5 h
  SCMET N/F = number of animals protected relative to number tested: 1/4
[4]; 100 mg/kg, 1.0 h
  SCMET N/F = number of animals protected relative to number tested: 0/4
[4]; 100 mg/kg, 2.0 h
  SCMET N/F = number of animals protected relative to number tested: 0/4
[4]; 100 mg/kg, 4.0 h
  SCMET N/F = number of animals protected relative to number tested: 0/4
[4]; 200 mg/kg, 0.25 h
  SCMET N/F = number of animals protected relative to number tested: 1/4
[4]; 200 mg/kg, 0.5 h
  SCMET N/F = number of animals protected relative to number tested: 1/4
[4]; 360 mg/kg, 0.25 h
  SCMET N/F = number of animals protected relative to number tested: 3/4
[4]; 360 mg/kg, 0.5 h
  SCMET N/F = number of animals protected relative to number tested: 0/4
[4]; 360 mg/kg, 1.0 h
  SCMET N/F = number of animals protected relative to number tested: 2/4
[4]; 360 mg/kg, 2.0 h
  SCMET N/F = number of animals protected relative to number tested: 1/4
[4]; 360 mg/kg, 4.0 h
  SCMET N/F = number of animals protected relative to number tested: 0/4
[4]; summary of Table 2
  Anticonvulsant efficacy in relation to neurotoxicity (in words): effective at doses that do not demonstrate neurotoxicity
